Measurements published in US8258158B2 (Hoffmann-La Roche Inc., priority 2009, dated 2012).

Target: T1, human HSL (Homo sapiens, UniProt Q05469)
T1 construct: overlapping PCR to generate a full length human HSL ORF with a 3′-His6 tag; His6 (C); made in house; host or cells: High 5 insect cells (baculovirus, pFast-BAC)
T1 sequence (Q05469 1-1076): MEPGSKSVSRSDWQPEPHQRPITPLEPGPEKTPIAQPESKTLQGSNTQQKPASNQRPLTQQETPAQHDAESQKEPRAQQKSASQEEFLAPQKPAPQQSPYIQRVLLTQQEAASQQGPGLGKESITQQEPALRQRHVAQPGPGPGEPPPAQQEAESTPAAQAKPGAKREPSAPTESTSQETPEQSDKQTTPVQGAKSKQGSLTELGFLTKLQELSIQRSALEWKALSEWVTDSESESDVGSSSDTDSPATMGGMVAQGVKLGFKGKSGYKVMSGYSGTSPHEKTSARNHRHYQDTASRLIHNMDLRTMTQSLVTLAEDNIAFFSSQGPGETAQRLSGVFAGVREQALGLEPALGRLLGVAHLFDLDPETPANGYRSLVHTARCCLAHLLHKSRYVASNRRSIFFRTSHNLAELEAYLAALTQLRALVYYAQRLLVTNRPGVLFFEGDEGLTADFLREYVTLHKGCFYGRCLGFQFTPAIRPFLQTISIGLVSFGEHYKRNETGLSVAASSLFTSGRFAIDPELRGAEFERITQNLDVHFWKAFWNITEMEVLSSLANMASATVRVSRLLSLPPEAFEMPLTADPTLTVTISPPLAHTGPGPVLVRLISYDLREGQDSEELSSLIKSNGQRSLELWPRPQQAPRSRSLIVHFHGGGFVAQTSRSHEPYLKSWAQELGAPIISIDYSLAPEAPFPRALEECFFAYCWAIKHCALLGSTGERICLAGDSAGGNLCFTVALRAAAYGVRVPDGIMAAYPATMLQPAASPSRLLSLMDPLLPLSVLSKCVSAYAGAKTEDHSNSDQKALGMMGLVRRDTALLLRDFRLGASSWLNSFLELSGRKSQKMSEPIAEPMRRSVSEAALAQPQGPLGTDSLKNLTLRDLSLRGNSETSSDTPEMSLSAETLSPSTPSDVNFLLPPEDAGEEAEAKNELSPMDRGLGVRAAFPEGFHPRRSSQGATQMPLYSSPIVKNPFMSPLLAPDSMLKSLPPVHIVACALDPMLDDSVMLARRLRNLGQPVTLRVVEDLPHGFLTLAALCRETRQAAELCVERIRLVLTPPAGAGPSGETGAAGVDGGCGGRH
Experiment: Human hormone-sensitive lipase (HSL) enzyme inhibition assay (colorimetric, DMPT substrate)
Format: biochemical
Conditions: human full length HSL-His6; 2,3-dimercapto-1-propanol tributyrate substrate; 37° C., 20 minutes; read-out: HSL hum IC50
Protocol: Production of Human Full Length Hormone Sensitive Lipase-His^6:
1) Cloning: cDNA was prepared from commercial human brain polyA+ RNA and used as a template in overlapping PCR to generate a full length human HSL ORF with a 3′-His6 tag. This full length insert was cloned into the pFast-BAC vector and the DNA-sequence of several single clones was verified. DNA from a correct full length clone with the 3′His6 tag was used to transform the E. coli strain DH10BAC. Resulting bacmid DNA was used to generate a titered baculovirus stock for protein generation. The sequence of the encoded HSL conforms to Swissprot entry Q05469, with the additional C-terminal His6-tag.
2) Protein purification: Culture: 5.5 L, High 5 cells expressing human full length HSL-His^6, 48 hr., containing 25 μM E-64. Cell count: […], 90% viable. Cells were thawed. On ice, cells were suspended in Base Buffer containing 10% glycerol, 25 mM Tris-Cl, 300 mM NaCl, 10 mM imidazole, 10 mM 2-mercaptoethanol, 2 μg pepstatin/ml, 2 μg leupeptin/ml, 2 μg antipain/ml, pH 8.0 at 4° C. in a final volume of 475 ml with 3.75×10^7 cells/ml. […] was done at 3×30 sec., Lubrol PX was added to 0.2% final concentration followed by stirring for 15 min. at 4° C. and centrifugation at 25 k×g, 60 min., 4° C. Soluble proteins were mixed with 60 ml of pre-washed and equilibrated Ni-NTA Agarose (Qiagen 30210) followed by tumbling end-over-end, 45 min., 4° C., centrifugation 1000 rpm 5 min and letting resin settle 5 min. Supernatant was removed, the resin washed in the centrifuge vessel using 5 volumes of Base Buffer containing 0.2% Lubrol PX. Centrifugation was done again, then the supernatant discarded. The resin was poured onto a 0.8 μm membrane in a disposable filter unit (Nalge 450-0080), and washed with 5 volumes of Base Buffer containing 0.2% Lubrol PX. It was then washed with 30 volumes of Base Buffer containing 60 mM imidazole pH 7.5 at 4° C. The protein was eluated with 5 volumes of 25 mM Tris-Cl, 300 mM NaCl, 200 mM imidazole, 10 mM 2-mercaptoethanol, pH 7.5 at 4° C. by tumbling resin with buffer end-over-end, 30 min., 4° C. The resin was captured on a 0.2 μm membrane disposable filter unit (Millipore SCGP U02 RE) and the eluate collected in the reservoir. The eluate was concentrated using a 30 k MWCO centrifugal filter device (Sartorius Vivascience Vivacell 100, VC1022), to 20 ml. It was then dialyzed overnight at 4° C., two times against 2 L of 10% glycerol, 25 mM Tris-Cl, 300 mM NaCl, 0.2 mM EDTA, 0.2 mM DTT, pH 7.5 at 4° C. The protein was filtered using a 0.22 μm disposable filter unit (Millipore SCGP00525). The protein concentration was calculated from absorbance at 280 nm, using 280=0.67 cm-1 mg-1. Yield was 235 mg, total. The protein was stored at −80° C.
Human Hormone-Sensitive Lipase (HSL) Enzyme Inhibition Assay:
HSL enzyme activity was measured by a colorimetric assay using 2,3-dimercapto-1-propanol tributyrate (Aldrich, St. Louis, Mo.) as a substrate. Typically, 1.5 mM 2,3-dimercapto-1-propanol tributyrate (DMPT) in 100 mM MOPS, pH 7.2, 0.2 mg/ml fatty acid-free BSA was prepared by sonication at 4° C. to homogenous suspension. Test compounds (2 mM stock in DMSO) were diluted 3 fold in series in DMSO. Compound solutions were diluted 24 fold in 1.5 mM DMPT containing solution and 18 ul per well was added to 384-well microplates (Corning Costar). Twelve microliters per well of human HSL (15 ug/ml) was added and the reaction mixture was incubated at 37° C. for 20 minutes. Six microliters of 12 mM dithio-bis-(2-nitrobenzoic acid) (DTNB) in DMSO plus 1.2% SDS and 0.6% Triton X-100 were added and the mixture was incubated at room temperature for 15 minutes. Product production was monitored by reading absorbance at 405 nm on an Envision Reader (PerkinElmer Life and Analytical Sciences, Shelton, Conn.).

Which IC50 does the source give for `Cc1ccc(S(=O)(=O)N2CCC(C(=O)Nc3ccc(OC(F)F)cc3)CC2)cc1` [Example 13, 1-(Toluene-4-sulfonyl)-piperidine-4-carboxylic acid (4-difluoromethoxy-phenyl)-amide] here?
Its IC50 is 120 nM.

`Cc1ccc(S(=O)(=O)N2CCC(C(=O)Nc3ccc(OCC(F)(F)F)cc3)CC2)cc1` [Example 14, 1-(Toluene-4-sulfonyl)-piperidine-4-carboxylic acid [4-(2,2,2-trifluoro-ethoxy)-phenyl]-amide] was tested. Which IC50 did it give?
The IC50 was 160 nM.

For `Cc1ccc(S(=O)(=O)N2CCC(C(=O)Nc3ccc(OC(C)C)cc3F)CC2)cc1` [Example 15, 1-(Toluene-4-sulfonyl)-piperidine-4-carboxylic acid (2-fluoro-4-isopropoxy-phenyl)-amide], which IC50 is on record?
Its IC50 is 470 nM.

How did the IC50 turn out when `Cc1ccc(S(=O)(=O)N2CCC(C(=O)N(C)c3ccc(OC(F)(F)F)cc3)CC2)cc1` [Example 16, 1-(Toluene-4-sulfonyl)-piperidine-4-carboxylic acid methyl-(4-trifluoromethoxy-phenyl)-amide] was run?
The IC50 was 40 nM.

Which IC50 does the source give for `Cc1ccc(S(=O)(=O)N2CCC(C(=O)Nc3ccc4c(c3)CCO4)CC2)cc1` [Example 17, 1-(Toluene-4-sulfonyl)-piperidine-4-carboxylic acid (2,3-dihydro-benzofuran-5-yl)-amide] here?
Its IC50 is 770 nM.

With `Cc1ccc(S(=O)(=O)N2CCC(F)(C(=O)Nc3ccc(OC(F)(F)F)cc3)CC2)cc1` [Example 18, 4-Fluoro-1-(toluene-4-sulfonyl)-piperidine-4-carboxylic acid (4-trifluoromethoxy-phenyl)-amide] as the compound, how does the IC50 read?
The IC50 was 550 nM.

For `Cc1ccc(S(=O)(=O)N2CCC(F)(C(=O)Nc3ccc(OC(C)C)cc3)CC2)cc1` [Example 19, 4-Fluoro-1-(toluene-4-sulfonyl)-piperidine-4-carboxylic acid (4-isopropoxy-phenyl)-amide], which IC50 is on record?
The IC50 was 740 nM.

How did the IC50 turn out when `Cc1ccc(S(=O)(=O)N2CCC(C(=O)Nc3ccc(OCC4CC4)cc3)CC2)cc1` [Example 20, 1-(Toluene-4-sulfonyl)-piperidine-4-carboxylic acid (4-cyclopropylmethoxy-phenyl)-amide] was run?
Its IC50 is 170 nM.

How did the IC50 turn out when `CC(C)(C)CC(=O)N1CCC(C(=O)Nc2ccc(OC(F)(F)F)cc2)CC1` [Example 21, 1-(3,3-Dimethyl-butyryl)-piperidine-4-carboxylic acid (4-trifluoromethoxy-phenyl)-amide] was run?
The IC50 was 200 nM.

`Cc1ccc(S(=O)(=O)N2CCC(C(=O)Nc3ccc(CCO)cc3)CC2)cc1` [Example 22, 1-(Toluene-4-sulfonyl)-piperidine-4-carboxylic acid [4-(2-hydroxy-ethyl)-phenyl]-amide] was tested. Which IC50 did it give?
The IC50 was 700 nM.

With `O=C(Nc1ccc(OC(F)(F)F)cc1)C1(CO)CCN(S(=O)(=O)c2ccccc2)CC1` [Example 26, 1-Benzenesulfonyl-4-hydroxymethyl-piperidine-4-carboxylic acid (4-trifluoromethoxy-phenyl)-amide] as the compound, how does the IC50 read?
The IC50 was 220 nM.

How did the IC50 turn out when `O=C(Nc1ccc(OC(F)(F)F)cc1)C1(CO)CCN(S(=O)(=O)c2ccccc2Cl)CC1` [Example 28, 1-(2-Chloro-benzenesulfonyl)-4-hydroxymethyl-piperidine-4-carboxylic acid (4-trifluoromethoxy-phenyl)-amide] was run?
The IC50 was 660 nM.

With `COc1ccc(S(=O)(=O)N2CCC(F)(C(=O)Nc3ccc(OC(F)(F)F)cc3)CC2)cc1` [Example 29, 4-Fluoro-1-(4-methoxy-benzenesulfonyl)-piperidine-4-carboxylic acid (4-trifluoromethoxy-phenyl)-amide] as the compound, how does the IC50 read?
Its IC50 is 280 nM.

How did the IC50 turn out when `O=C(Nc1ccc(OC(F)(F)F)cc1)C1(F)CCN(S(=O)(=O)c2ccccc2Cl)CC1` [Example 30, 1-(2-Chloro-benzenesulfonyl)-4-fluoro-piperidine-4-carboxylic acid (4-trifluoromethoxy-phenyl)-amide] was run?
The IC50 was 180 nM.

For `Cc1ccc(S(=O)(=O)N2CCC(C)(C(=O)Nc3ccc(OC(F)(F)F)cc3)CC2)cc1` [Example 31, 4-Methyl-1-(toluene-4-sulfonyl)-piperidine-4-carboxylic acid (4-trifluoromethoxy-phenyl)-amide], which IC50 is on record?
The IC50 was 480 nM.

With `Cc1ccc(S(=O)(=O)N2CCC(C(=O)Nc3ccc(OC(C)(C)C(F)(F)F)cc3)CC2)cc1` [Example 33, 1-(Toluene-4-sulfonyl)-piperidine-4-carboxylic acid [4-(2,2,2-trifluoro-1,1-dimethyl-ethoxy)-phenyl]-amide] as the compound, how does the IC50 read?
The IC50 was 130 nM.

Which IC50 does the source give for `CCn1nc(NC(=O)C2CCN(S(=O)(=O)c3ccccc3)CC2)cc1C(F)(F)F` [Example 35, 1-Benzenesulfonyl-piperidine-4-carboxylic acid (1-ethyl-5-trifluoromethyl-1H-pyrazol-3-yl)-amide] here?
The IC50 was 1130 nM.

`O=C(Nc1ccc(OC(F)(F)F)cc1)C1CCN(S(=O)(=O)N2CCOCC2)CC1` [Example 37, 1-(Morpholine-4-sulfonyl)-piperidine-4-carboxylic acid (4-trifluoromethoxy-phenyl)-amide] was tested. Which IC50 did it give?
Its IC50 is 600 nM.

How did the IC50 turn out when `O=C(Nc1ccc(OC(F)(F)F)cc1)C1CCN(S(=O)(=O)c2ccccc2Cl)CC1` [Example 38, 1-(2-Chloro-benzenesulfonyl)-piperidine-4-carboxylic acid (4-trifluoromethoxy-phenyl)-amide] was run?
The IC50 was 20 nM.

How did the IC50 turn out when `CC(C)Oc1ccc(NC(=O)C2CCN(S(=O)(=O)c3ccccc3Cl)CC2)cc1` [Example 39, 1-(2-Chloro-benzenesulfonyl)-piperidine-4-carboxylic acid (4-isopropoxy-phenyl)-amide] was run?
Its IC50 is 40 nM.

For `Cc1ccc(S(=O)(=O)N2CCC(F)(C(=O)Nc3ccc(C(C)C)cc3)CC2)cc1` [Example 41, 4-Fluoro-1-(toluene-4-sulfonyl)-piperidine-4-carboxylic acid (4-isopropyl-phenyl)-amide], which IC50 is on record?
Its IC50 is 320 nM.
